# Measured values as given in article PMC4117768, “Conjugation with polyamines enhances the antibacterial and anticancer activity of chloramphenicol” (Nucleic Acids Research, 2014).
# Entries after “also recorded” stand apart in the source; their conditions may differ. Read-outs that look alike come from different tables or passages of the source.
# What was measured:
# wild-type E. coli = experiment: Growth inhibition of bacterial cell cultures; format: cell-based; settings: for IC50: Escherichia coli, read-out: IC50 (inhibit the growth by half); for IC50/IC50(puro): wild-type E. coli, IC50(puro) = concentration causing 50% inhibition in peptide-bond formation at 2 mM puromycin
# Procedure: S. aureus or E. coli cells (400 μl of a 0.700 OD560 preculture) containing wild-type or mutant ribosomes were added in 3.6 ml of LB (Luria Broth) medium and grown at 37°C in the presence or absence of CAM or PA–CAM conjugates until the optical density of the control culture (grown in the absence of drug) reached the value 0.700 at 560 nm. From the growth curves, the IC50 value for each strain was estimated as the concentration of the drug that is required to inhibit the growth by half.
# [1] = test system: human peripheral blood cells; experiment: Toxicity assay in human peripheral blood cells (cell counting); format: cell-based
# Procedure: Peripheral blood was collected in EDTA-coated tubes from five healthy volunteers (age range: 25–30 years). Cell concentration was adjusted to 1.8 × 10^9 cells/l using RPMI-1640 medium (GIBCO BRL) containing 1% Penicillin/Streptomycin. CAM or PA–CAM conjugates were added at various concentrations and cells were cultured in triplicate under a humidified 5% CO2 atmosphere for 5 days, at 37°C. In parallel, cells were cultured in the absence of CAM or PA–CAM conjugates (control cultures). Counting of cells was performed daily in a CELL-DYN 3700 Hematology Analyzer (Abbott, USA) and values were expressed as a percentage of cells measured in control cultures.
# Figure S1. Toxicity assays in human peripheral blood cells. Peripheral blood was collected in EDTA-coated tubes from 5 healthy volunteers (age range: 25-30 years). Cell concentration was adjusted to 1.8×10^9 cells/l using RPMI-1640 medium (GIBCO BRL) containing 1% penicillin/streptomycin. CAM or compound 4 was added at final concentrations equal to 30 or 60 μM and cells were cultured in triplicate under a humidified 5% CO2 atmosphere for 5 days, at 37°C. Control cultures were carried out in the absence of CAM or compound 4. Cultures were counted daily in a CELL-DYN 3700 Hematology Analyzer and values are expressed as a percentage of cells measured in control cultures.
# [2] = test system: HS-Sultan (Burkitt's lymphoma) cells; experiment: Toxicity assay in leukemic cell line (cell counting, Annexin V flow cytometry); format: cell-based, human; settings: for induction of apoptosis (flow cytometry) / induction of necrosis (flow cytometry): 60 μM; for sensitivity of cells / inhibition of cell proliferation (cell counting): increasing concentrations
# Procedure: (§1) Human leukemic cell lines, HS-Sultan (Burkitt's lymphoma) (European Collection of Cell Cultures, Salisbury, UK), Jurkat (T-cell acute lymphoblastic leukemia) and U937 (histiocytic lymphoma) (American Type Culture Collection, Manassas, USA), were adjusted to 1 × 10^9 cells/l in RPMI-1640 medium containing 1% Penicillin/Streptomycin and 10% fetal bovine serum and grown in triplicate in the presence or absence of CAM or PA–CAM conjugates for 4 days at 37°C, under a humidified 5% CO2 atmosphere. The medium was changed after 2 days of exposure; CAM or PA-CAM addition was repeated after medium change to keep the appropriate drug concentration. Aliquots were collected daily and counted in a CELL-DYN 3700 Hematology Analyzer. For cell necrosis and apoptosis assays, samples (10^6 cells) were collected daily and determined using the Annexin V-PE Apoptosis Detection Kit I (BD Pharmingen) for flow cytometry ([29]), as described by the manufacturer. Flow cytometry data were analyzed using the FlowJo flow cytometry analysis software. Necrotic and apoptotic cells were expressed as a percentage of total cells.
# (§2) Figure S2. Toxicity assays in leukemic cell lines. Human leukemic cell lines, HS-Sultan, Jurkat, and U937 were adjusted to 1×10^9 cells/l in RPMI-1640 medium containing 1% Penicillin/Streptomycin and 10% fetal bovine serum and grown in triplicate in the presence or absence of CAM or compound 4 at the indicated concentrations for 5 days at 37°C, under a humidified 5% CO2 atmosphere. Aliquots were collected daily and counted in a CELL-DYN 3700 Hematology Analyzer.
# Figure S3. Toxicity assays in HS-Sultan cells. HS-Sultan cells were adjusted to 1×10^9 cells/l in RPMI-1640 medium containing 1% Penicillin/Streptomycin and 10% fetal bovine serum and grown in triplicate in the presence or absence of CAM or compound 4 at the indicated concentrations for 4 days at 37°C, under a humidified 5% CO2 atmosphere. For cell necrosis and apoptosis assays, samples (10^6 cells) were collected daily and determined using the Annexin V-PE Apoptosis Detection Kit I for flow cytometry. Non-viable and necrotic cells were expressed as a percentage of total cells.
# [3] = test system: Jurkat (T-cell acute lymphoblastic leukemia) cells; experiment: as above; format: cell-based, human; settings: for sensitivity of cells / inhibition of cell proliferation (cell counting): increasing concentrations
# Procedure: as §1, §2
# Figure S4. Toxicity assays in Jurkat cells. Jurkat cells were adjusted to 1×10^9 cells/l in RPMI-1640 medium containing 1% Penicillin/Streptomycin and 10% fetal bovine serum and grown in triplicate in the presence or absence of CAM or compound 4 at the indicated concentrations for 4 days at 37°C, under a humidified 5% CO2 atmosphere. Cell necrosis and apoptosis assays were performed as described in Figure S3. Necrotic and apoptotic cells were expressed as a percentage of total cells.
# [4] = test system: human mesothelioma cells ZL34; experiment: Cell viability by trypan blue exclusion assay; format: cell-based; settings: for IC50: Homo sapiens, ZL34 cells, read-out: IC50 (toxicity, cell viability)
# Procedure: (§3) ZL34 and Met5A cells were plated in sterile 96-well microtiter plates at 5 × 10^4cells/ml and grown in Dulbecco's modified Eagle's medium (DMEM), provided by Sigma-Aldrich and supplemented with 5% fetal bovine serum. Cultures were maintained in a humidified atmosphere with 5% CO2, at 37°C. Solutions at the appropriate concentration of each compound were added, and then cells were grown for 24, 48, 72 and 96 h. After treatment, the drug was removed by washing the cells twice with phosphate buffered saline. The cells were then trypsinized (100 μl Trypsin-EDTA × 1 (Biosera) solution/well, 10 min at 37°C), mixed with 1 ml DMEM and collected by centrifugation at 3000 × g for 5 min. Cell viabilities were determined by the trypan blue exclusion assay, using a TC10 automated cell counter (BIO-RAD). Viable cells were expressed as a percentage of total cells.
# (§4) Figure S5. Toxicity assays in ZL34 and Met5A cell lines. ZL34 or Met5A cells were plated in sterile 96-well microtiter plates at 5×10^4 cells/ml and grown in DMEM, supplemented with 5% fetal bovine serum. Cultures were maintained in a humidified atmosphere with 5% CO2, at 37°C. Solutions at the appropriate concentration of each compound were added, and then cells were grown for 24 h, 72 h and 96 h. After treatment, CAM or compound 4 was removed by washing the cells twice with PBS. The cells were then trypsinized, mixed with 1 ml DMEM and collected by centrifugation at 3,000×g for 5 min. Cell viabilities were determined by the trypan blue exclusion assay, using a TC10 automated cell counter (BIO-RAD). Viable cells were expressed as a percentage of total cells. SPD, spermidine.
# [5] = test system: immortalized human mesothelial Met5A cells; experiment: Cell viability by trypan blue exclusion assay; format: cell-based; settings: for IC50: Homo sapiens, MeT-5A, Met5A cells, read-out: IC50 (toxicity, cell viability)
# Procedure: as §3, §4
Structure (SMILES),"IC50 (wild-type E. coli; WT-E. coli, LB medium, 37°C) [µM]",IC50/IC50(puro) (wild-type E. coli),effects on other types of leukocytes ([1]; 30 μM for 24 or 48 h),reduction in the viability of neutrophils ([1]; 30 μM for 24 or 48 h) [%],induction of apoptosis (flow cytometry) [2],induction of necrosis (flow cytometry) [2],sensitivity of cells / inhibition of cell proliferation (cell counting) [2],induction of apoptosis (flow cytometry) ([3]; 60 μM),induction of necrosis (flow cytometry) ([3]; 60 μM),sensitivity of cells / inhibition of cell proliferation (cell counting) [3],IC50 [4] [µM],"rescue by exogenously added spermidine ([4]; ZL34 cells treated with 300 μM compound, 3 mM spermidine)",IC50 [5] [µM],IC50 (wild-type E. coli) [µM],effect on the viability of human monocytes and lymphocytes ([1]; 120 h culture period),toxicity to neutrophils ([1]; 120 h culture period),"viability after rescue by exogenously added spermidine ([4]; ZL34 cells exposed to an IC50 dose of the compound, spermidine at 10 × IC50) [%]","rescue by exogenously added spermidine ([5]; Met5A cells exposed to an IC50 dose of the compound, spermidine at 10 × IC50)"
"O=C(N[C@H](CO)[C@H](O)c1ccc([N+](=O)[O-])cc1)C(Cl)Cl [CAM, Chloramphenicol]",6.2 ± 0.5,1.17 ± 0.13,negligible,20,failed to induce apoptosis,induced necrosis,sensitive,failed to induce apoptosis,failed to induce necrosis/apoptosis,sensitive,> 300,no rescue was observed,> 300,–,–,–,–,–
NCCCN(CCCCN(Cc1ccccc1)Cc1ccccc1)C(=O)CCC(=O)N[C@H](CO)[C@H](O)c1ccc([N+](=O)[O-])cc1 [Compound 4],–,5.60 ± 0.76,negligible,–,apoptosis to HS-Sultan cells,induced necrosis,sensitive; also recorded: more effective than CAM,–,induced necrosis,sensitive; also recorded: more effective than CAM,25 ± 3,–,60 ± 5,9.4 ± 0.8,little or no effect,moderate and transient toxicity,~95,recover little of the lost viability
